# Test results reported in patent US9253983B2, “Triazole compound and use thereof” (KUREHA CORPORATION, priority 2011, dated 2016).
# How the values were obtained:
# Fusarium oxysporum = assay: Test 2 for antifungal effect, plate medium: F.c; format: cell-based; conditions: PDA plate medium
# Procedure: (§1) Compound (1-1b) or Compound (1-2b) was dissolved in dimethyl sulfoxide, and the resulting solution was added to a PDA medium (potato dextrose-agar medium) at about 60° C. The medium and the solution were mixed thoroughly in a conical flask, poured into a petri dish, and allowed to solidify. In this way, a plate medium containing Compound (1-1b) or Compound (1-2b) at a certain concentration was prepared.
# (§2) Meanwhile, test microorganisms cultured on a plate medium in advance were cut out with the use of a cork borer 4 mm in diameter, and were inoculated onto the compound-containing plate medium. After the inoculation, the pathogens were cultured at their optimum growth temperatures (for example, refer to LIST OF CULTURES 1996 microorganisms 10th edition, Institute for Fermentation (foundation)) for 1 day to 7 days, and their growth was determined by measuring the diameter of their flora. The extent of growth of the pathogens on the compound-containing plate medium was compared with that of pathogens on a plate medium where no compound was added, and mycelial growth inhibition rate was calculated as in Experiment Example 10. Note that, in Experiment Example 11, controls used in the antifungal effect tests are Compound (1-1a) and Compound (1-2a) instead of Compound (1-1b) and Compound (1-2b), respectively.
# (§3) The results were rated on a 1-to-5 scale as in Experiment Example 10.
# Glomerella cingurata = assay: Test 1 for antifungal effect, plate medium: G.c; format: cell-based; conditions: PDA plate medium
# Procedure: as §1, with “(1-1a)” for “(1-1b)”, “(1-2a)” for “(1-2b)”
# (§4) Meanwhile, test microorganisms cultured on a plate medium in advance were cut out with the use of a cork borer 4 mm in diameter, and were inoculated onto the compound-containing plate medium. After the inoculation, the microorganisms were cultured at their optimum growth temperatures (for example, refer to LIST OF CULTURES 1996 microorganisms 10th edition, Institute for Fermentation (foundation)) for 1 day to 7 days, and their growth was determined by measuring the diameter of their flora. The extent of growth of the microorganisms on the compound-containing plate medium was compared with that of microorganisms on a plate medium where no compound was added, and mycelial growth inhibition rate was calculated by the following equation: R=100(dc−dt)/dc where R is mycelial growth inhibition rate (%), dc is the flora diameter in untreated plate, and dt is the flora diameter in plate treated with the compound.
# (§5) A larger antifungal index indicates a better antifungal effect.
# Rhizopus oryzae = assay: Test 1 for antifungal effect, plate medium: R.o; format: cell-based; conditions: PDA plate medium
# Procedure: as §1, with “(1-1a)” for “(1-1b)”, “(1-2a)” for “(1-2b)”
# as §4, §5
# Puccinia recondita = assay: Controlling effect on wheat brown rust (leaf rust) by foliage spray treatment (Tests 1 and 2); format: in vivo; conditions: foliage spray 0.8 mg/L, 1,000 L/ha, 11 days after inoculation
# Procedure: The wheat plants had been grown in square plastic pots (6 cm×6 cm). The suspensions were left to dry, and inoculated with spores of Puccinia recondita (adjusted at 200 spores per field of vision, Gramin S was added at 60 ppm) by spraying, and kept at 25° C. in a high humidity environment for 48 hours. After that, the plants were kept in a greenhouse. 11 days after the inoculation, the lesion degree of the wheat leaf rust was examined in accordance with the criteria shown in Table 4, and the protective values were calculated by the following equation. Protective value (%)=(1−Average lesion degree in sprayed plot/Average lesion degree in unsprayed plot)×100
# The wheat plants had been grown in square plastic pots (6 cm×6 cm). The leaves were air-dried, and inoculated with spores of Puccinia recondita (adjusted at 200 spores per field of vision, Gramin S was added at 60 ppm) by spraying, and kept at 25° C. in a high humidity environment for 48 hours. After that, the plants were kept in a greenhouse. 11 days after the inoculation, the lesion degree of the wheat leaf rust was examined, and the protective values were calculated as were in Experiment Example 2.
# Septoria tritici = assay: Test 2 for antifungal effect, plate medium: S.t; format: cell-based; conditions: PDA plate medium
# Procedure: as §1, §2, §3
# Botrytis cinerea = assay: Controlling effect on cucumber gray mold by foliage spray treatment (Tests 1 and 2); format: in vivo; conditions: four days after inoculation
# Procedure: The cucumber plants had been grown in square plastic pots (6 cm×6 cm). After the suspension was then left to dry, paper discs (8 mm in diameter) impregnated with a spore suspension of Botrytis cinerea w ere placed on the leaves, and the plants were kept at 20° C. in a high humidity environment. Four days after inoculation, the lesion degree of the cucumber gray mold was examined in accordance with the criteria shown in Table 1, and the protective values were calculated by the following equation: Protective value (%)=(1−Average lesion degree in sprayed plot/Average lesion degree in unsprayed plot)×100.
# The cucumber plants had been grown in square plastic pots (6 cm×6 cm). After the leaves were air-dried, paper discs (8 mm in diameter) impregnated with a spore suspension of cucumber graymold-causing microorganisms were placed on the leaves, and the plants were kept at 20° C. in a high humidity environment. 4 days after the inoculation, the lesion degree of the cucumber gray mold was examined, and the protective values were calculated as were in Experiment Example 1.
# Penicillium italicum = assay: Test 2 for antifungal effect, plate medium: P.i; format: cell-based; conditions: PDA plate medium
# Procedure: as §1, §2, §3
# Ustilago nuda = assay: Test 2 for antifungal effect, plate medium: U.n; format: cell-based; conditions: PDA plate medium
# Procedure: as §1, §2, §3
# [1] = foliage spray 12.5 mg/L, 1,000 L/ha
SMILES,Antifungal index (mycelial growth inhibition rate) (Fusarium oxysporum; 0.04 mg/L),Antifungal index (mycelial growth inhibition rate) (Fusarium oxysporum; 0.08 mg/L),Antifungal index (mycelial growth inhibition rate) (Fusarium oxysporum; 0.16 mg/L),Antifungal index (mycelial growth inhibition rate) (Fusarium oxysporum; 0.31 mg/L),Antifungal index (mycelial growth inhibition rate) (Fusarium oxysporum; 0.63 mg/L),Antifungal index (mycelial growth inhibition rate) (Fusarium oxysporum; 1.25 mg/L),Antifungal index (mycelial growth inhibition rate) (Glomerella cingurata; 0.16 mg/L),Antifungal index (mycelial growth inhibition rate) (Glomerella cingurata; 0.31 mg/L),Antifungal index (mycelial growth inhibition rate) (Glomerella cingurata; 0.63 mg/L),Antifungal index (mycelial growth inhibition rate) (Glomerella cingurata; 1.25 mg/L),Antifungal index (mycelial growth inhibition rate) (Glomerella cingurata; 2.50 mg/L),Antifungal index (mycelial growth inhibition rate) (Rhizopus oryzae; 0.16 mg/L),Antifungal index (mycelial growth inhibition rate) (Rhizopus oryzae; 0.31 mg/L),Antifungal index (mycelial growth inhibition rate) (Rhizopus oryzae; 0.63 mg/L),Antifungal index (mycelial growth inhibition rate) (Rhizopus oryzae; 1.25 mg/L),Antifungal index (mycelial growth inhibition rate) (Rhizopus oryzae; 2.50 mg/L),Protective value (%) (Puccinia recondita),Antifungal index (mycelial growth inhibition rate) (Septoria tritici; 0.04 mg/L),Antifungal index (mycelial growth inhibition rate) (Septoria tritici; 0.08 mg/L),Antifungal index (mycelial growth inhibition rate) (Septoria tritici; 0.16 mg/L),further results
"CC1(CCl)CCC(Cc2ccc(Cl)cc2)C1(O)Cn1cncn1 (single isomer, unassigned) [Compound (1-1b), (1,2-cis, 1,5-cis)-5-(4-chlorobenzyl)-2-chloromethyl-2-methyl-1-(1H-1,2,4-triazole-1-ylmethyl)cyclopentanol]",1 (Less than 60%),3 (Less than 80% but not less than 70%),4 (Less than 90% but not less than 80%),5 (90% or greater),5 (90% or greater),5 (90% or greater),2 (Less than 70% but not less than 60%),4 (Less than 90% but not less than 80%),5 (90% or greater),5 (90% or greater),5 (90% or greater),1 (Less than 60%),1 (Less than 60%),1 (Less than 60%),1 (Less than 60%),4 (Less than 90% but not less than 80%),29,1 (Less than 60%),1 (Less than 60%),1 (Less than 60%),Antifungal index (mycelial growth inhibition rate) (Septoria tritici; 0.31 mg/L): 3 (Less than 80% but not less than 70%); Antifungal index (mycelial growth inhibition rate) (Septoria tritici; 0.63 mg/L): 5 (90% or greater); Antifungal index (mycelial growth inhibition rate) (Septoria tritici; 1.25 mg/L): 5 (90% or greater); Protective value (%) (Botrytis cinerea; [1]): 45%; Antifungal index (mycelial growth inhibition rate) (Penicillium italicum; 0.04 mg/L): 3 (Less than 80% but not less than 70%); Antifungal index (mycelial growth inhibition rate) (Penicillium italicum; 0.08 mg/L): 4 (Less than 90% but not less than 80%); Antifungal index (mycelial growth inhibition rate) (Penicillium italicum; 0.16 mg/L): 5 (90% or greater); Antifungal index (mycelial growth inhibition rate) (Penicillium italicum; 0.31 mg/L): 5 (90% or greater); Antifungal index (mycelial growth inhibition rate) (Penicillium italicum; 0.63 mg/L): 5 (90% or greater); Antifungal index (mycelial growth inhibition rate) (Penicillium italicum; 1.25 mg/L): 5 (90% or greater); Antifungal index (mycelial growth inhibition rate) (Ustilago nuda; 0.04 mg/L): 1 (Less than 60%); Antifungal index (mycelial growth inhibition rate) (Ustilago nuda; 0.08 mg/L): 1 (Less than 60%); Antifungal index (mycelial growth inhibition rate) (Ustilago nuda; 0.16 mg/L): 2 (Less than 70% but not less than 60%); Antifungal index (mycelial growth inhibition rate) (Ustilago nuda; 0.31 mg/L): 3 (Less than 80% but not less than 70%); Antifungal index (mycelial growth inhibition rate) (Ustilago nuda; 0.63 mg/L): 4 (Less than 90% but not less than 80%); Antifungal index (mycelial growth inhibition rate) (Ustilago nuda; 1.25 mg/L): 5 (90% or greater)
"CC1(CCl)CCC(Cc2ccc(F)cc2)C1(O)Cn1cncn1 (single isomer, unassigned) [Compound (1-2a), (1,2-cis, 1,5-cis)-5-(4-fluorobenzyl)-2-chloromethyl-2-methyl-1-(1H-1,2,4-triazole-1-ylmethyl)cyclopentanol]",1 (Less than 60%),1 (Less than 60%),2 (Less than 70% but not less than 60%),3 (Less than 80% but not less than 70%),4 (Less than 90% but not less than 80%),5 (90% or greater),5 (90% or greater),5 (90% or greater),5 (90% or greater),5 (90% or greater),5 (90% or greater),1 (Less than 60%),1 (Less than 60%),3 (Less than 80% but not less than 70%),5 (90% or greater),5 (90% or greater),91,1 (Less than 60%),1 (Less than 60%),1 (Less than 60%),"Antifungal index (mycelial growth inhibition rate) (Septoria tritici; 0.31 mg/L): 1 (Less than 60%); Antifungal index (mycelial growth inhibition rate) (Septoria tritici; 0.63 mg/L): 1 (Less than 60%); Antifungal index (mycelial growth inhibition rate) (Septoria tritici; 1.25 mg/L): 3 (Less than 80% but not less than 70%); Protective value (%) (Botrytis cinerea; foliage spray 3.1 mg/L, 1,000 L/ha): 40%; Protective value (%) (Botrytis cinerea; [1]): 100%; Antifungal index (mycelial growth inhibition rate) (Penicillium italicum; 0.04 mg/L): 1 (Less than 60%); Antifungal index (mycelial growth inhibition rate) (Penicillium italicum; 0.08 mg/L): 1 (Less than 60%); Antifungal index (mycelial growth inhibition rate) (Penicillium italicum; 0.16 mg/L): 3 (Less than 80% but not less than 70%); Antifungal index (mycelial growth inhibition rate) (Penicillium italicum; 0.31 mg/L): 4 (Less than 90% but not less than 80%); Antifungal index (mycelial growth inhibition rate) (Penicillium italicum; 0.63 mg/L): 5 (90% or greater); Antifungal index (mycelial growth inhibition rate) (Penicillium italicum; 1.25 mg/L): 5 (90% or greater); Antifungal index (mycelial growth inhibition rate) (Ustilago nuda; 0.04 mg/L): 1 (Less than 60%); Antifungal index (mycelial growth inhibition rate) (Ustilago nuda; 0.08 mg/L): 1 (Less than 60%); Antifungal index (mycelial growth inhibition rate) (Ustilago nuda; 0.16 mg/L): 1 (Less than 60%); Antifungal index (mycelial growth inhibition rate) (Ustilago nuda; 0.31 mg/L): 1 (Less than 60%); Antifungal index (mycelial growth inhibition rate) (Ustilago nuda; 0.63 mg/L): 1 (Less than 60%); Antifungal index (mycelial growth inhibition rate) (Ustilago nuda; 1.25 mg/L): 2 (Less than 70% but not less than 60%)"
